Read-outs that look alike come from different tables or passages of the source. A value given as a limit tells only on which side of the number the result lay.

The subject of assay [1] is Gli-luciferase activity. The assay is described as follows: Reporter gene assay (RGA) in TMHh12 cells, antagonism of Gli-luciferase activity in the presence of a Smo agonist. The class given is cell-based. On the procedure:
Activity of the compounds was evaluated using a reporter gene assay (RGA) in TMHh12 cells.
A general note: Reporter assays use an easily measured gene product as a stand-in for the process of interest.

The target in assay [2] is mouse Smoothened receptor (Mus musculus, UniProt P56726). The assay is described as follows: Smo binding assay, displacement of radio-labeled smoothened agonist, filter binding format (mouse). The note with it: displacement of small molecule agonist of Smoothened, read-out: Mouse Smo bdg., IC50. The text has this:
A Smo binding assay was developed using radio-labeled smoothened agonist for compound competition.

Assay [3] has as its target human Smoothened receptor (Homo sapiens, UniProt Q99835). In words: Smo binding assay, displacement of radio-labeled smoothened agonist, filter binding format (human). The note with it: displacement of small molecule agonist of Smoothened, read-out: Human Smo bdg., IC50. An excerpt: A Smo binding assay was developed using radio-labeled smoothened agonist for compound competition. Table 9 lists the IC50 for displacement of a small molecule agonist of Smoothened determined in a filter binding format for the mouse and human Smoothened receptor.

Setting [4] is: 25 nM small molecule Smo agonist, read-out: RGA (25 nM Smo agonist) IC50.
The mark [5] stands for this setting: read-out: RGA (1 nM Smo agonist) IC50, 1 nM small molecule Smo agonist.

Chain of mouse Smoothened receptor (P56726 33-793): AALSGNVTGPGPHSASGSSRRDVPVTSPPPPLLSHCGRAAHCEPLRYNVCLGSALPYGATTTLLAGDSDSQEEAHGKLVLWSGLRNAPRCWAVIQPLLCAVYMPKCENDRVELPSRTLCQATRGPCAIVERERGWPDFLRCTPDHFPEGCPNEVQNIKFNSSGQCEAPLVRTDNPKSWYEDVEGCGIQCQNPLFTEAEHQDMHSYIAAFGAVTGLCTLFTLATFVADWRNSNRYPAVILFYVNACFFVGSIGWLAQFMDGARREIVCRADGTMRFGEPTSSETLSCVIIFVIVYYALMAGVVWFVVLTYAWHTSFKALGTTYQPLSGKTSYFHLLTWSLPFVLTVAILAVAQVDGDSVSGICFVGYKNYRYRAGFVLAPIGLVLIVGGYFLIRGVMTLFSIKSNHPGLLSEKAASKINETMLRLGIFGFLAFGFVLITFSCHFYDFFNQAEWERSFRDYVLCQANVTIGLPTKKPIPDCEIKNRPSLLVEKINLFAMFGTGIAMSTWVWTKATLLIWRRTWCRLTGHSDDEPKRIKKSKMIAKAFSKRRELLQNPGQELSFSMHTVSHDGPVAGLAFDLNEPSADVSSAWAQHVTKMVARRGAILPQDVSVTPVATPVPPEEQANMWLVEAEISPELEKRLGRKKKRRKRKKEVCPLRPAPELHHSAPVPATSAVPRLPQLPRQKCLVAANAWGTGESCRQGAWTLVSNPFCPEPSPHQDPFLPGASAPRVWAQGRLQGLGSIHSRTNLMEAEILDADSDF
Chain of human Smoothened receptor (Q99835 28-787): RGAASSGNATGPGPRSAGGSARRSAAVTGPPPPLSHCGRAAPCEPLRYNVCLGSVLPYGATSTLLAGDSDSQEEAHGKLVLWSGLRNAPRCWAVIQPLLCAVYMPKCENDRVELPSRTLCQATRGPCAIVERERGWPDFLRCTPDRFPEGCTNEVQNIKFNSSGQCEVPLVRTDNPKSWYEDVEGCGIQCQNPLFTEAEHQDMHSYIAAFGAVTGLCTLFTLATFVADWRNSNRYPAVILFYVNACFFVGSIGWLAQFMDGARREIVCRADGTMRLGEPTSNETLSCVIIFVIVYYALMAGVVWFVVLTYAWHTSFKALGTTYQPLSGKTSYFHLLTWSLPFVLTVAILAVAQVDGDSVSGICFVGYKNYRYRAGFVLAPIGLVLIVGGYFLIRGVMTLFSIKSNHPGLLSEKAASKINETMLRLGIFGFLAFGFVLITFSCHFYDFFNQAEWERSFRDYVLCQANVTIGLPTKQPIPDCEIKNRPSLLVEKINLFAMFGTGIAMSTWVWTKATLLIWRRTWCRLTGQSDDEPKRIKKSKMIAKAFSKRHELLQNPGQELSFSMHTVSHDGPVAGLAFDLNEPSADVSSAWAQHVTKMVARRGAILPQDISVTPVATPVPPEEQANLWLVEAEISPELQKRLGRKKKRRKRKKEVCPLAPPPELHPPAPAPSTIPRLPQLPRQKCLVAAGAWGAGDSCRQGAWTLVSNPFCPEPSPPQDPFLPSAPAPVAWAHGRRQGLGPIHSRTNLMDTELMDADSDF

`Cc1ccccc1Cc1nnc(N2CCN(c3ccc(C(C)(C)O)cn3)CC2)c2ccccc12` [Example 194]: the IC50 in assay [1] (setting [4]) was 100 to 1000 nM; in assay [1] (setting [5]), under 100 nM; in assay [2], under 100 nM; in assay [3], under 100 nM.
Consider `CN(C)C(=O)c1ccc(N2CCN(c3nnc(Cc4ccccc4)c4ccccc34)CC2)nc1` [Example 54s], for which the IC50 was 100 to 1000 nM in assay [1] (setting [4]), under 100 nM in assay [1] (setting [5]), under 100 nM in assay [2] and 100 to 1000 nM in assay [3].
Take `c1ccc(Cc2nnc(N3CCN(c4ccccc4)CC3)c3ccccc23)cc1` [Example 106]: the IC50 in assay [1] (setting [4]) lay in the range of 1000 to 10000 nM; in assay [1] (setting [5]) it was 100 to 1000 nM; in assay [2], 1000 to 10000 nM; in assay [3], 1000 to 10000 nM.
Turning to `CN(CCO)C(=O)c1ccc(N2CCN(c3nnc(Cc4ccc(Cl)c(Cl)c4)c4ccccc34)CC2)nc1` [Example 201], the IC50 is 100 to 1000 nM in assay [1] (setting [4]), under 100 nM in assay [1] (setting [5]), under 100 nM in assay [2] and under 100 nM in assay [3].
As for `CC(C)(NC(=O)OCc1ccccc1)c1ccc(N2CCN(c3nnc(Cc4ccccc4)c4ccccc34)CC2)nc1` [Example 123], the IC50 was 100 to 1000 nM in assay [1] (setting [4]), under 100 nM in assay [1] (setting [5]), under 100 nM in assay [2] and under 100 nM in assay [3].
Turning to `C[C@@H]1CN(c2ccc(C#N)cn2)CCN1c1nnc(Cc2ccccc2)c2ccccc12` [Example 118], the IC50 in assay [1] (setting [4]) lay within 1000 to 10000 nM; in assay [1] (setting [5]) it was 100 to 1000 nM; in assay [2], 100 to 1000 nM; in assay [3], 100 to 1000 nM.
Turning to `CP(C)(=O)c1ccc(N2CCN(c3nnc(Cc4ccccc4)c4ccccc34)CC2)nc1` [Example 107], the IC50 in assay [1] (setting [4]) is 100 to 1000 nM; in assay [1] (setting [5]), under 100 nM; in assay [2], 100 to 1000 nM; in assay [3], 100 to 1000 nM.
Take `OC(c1ccc(N2CCN(c3nnc(Cc4ccccc4)c4ccccc34)CC2)nc1)(C(F)(F)F)C(F)(F)F` [Example 110]: the IC50 in assay [1] (setting [4]), in assay [1] (setting [5]), in assay [2] and in assay [3] was under 100 nM in each case.
Take `CC(C)(O)c1cnc(N2CCN(c3nnc(Cc4ccccc4)c4ccccc34)CC2)cn1` [Example 150]: the IC50 in assay [1] (setting [4]), in assay [1] (setting [5]), in assay [2] and in assay [3] was under 100 nM each time.
As to `Fc1cnc(N2CCN(c3nnc(Cc4ccccc4)c4ccccc34)CC2)c(F)c1` [Example 52], the IC50 was in the range of 1000 to 10000 nM in assay [1] (setting [4]), 100 to 1000 nM in assay [1] (setting [5]), 100 to 1000 nM in assay [2] and 100 to 1000 nM in assay [3].
With `N#Cc1ccc(N2CCN(c3nnc(Cc4ccccc4Cl)c4ccccc34)CC2)nc1` [Example 174], the half-inhibitory concentration (IC50) in assay [1] (setting [4]) is 1000 to 10000 nM; in assay [1] (setting [5]) it was under 100 nM; in assay [2], 100 to 1000 nM; in assay [3], 100 to 1000 nM.
`COC(=O)Nc1ccc(N2CCN(c3nnc(Cc4ccccc4)c4ccccc34)CC2)nc1` [Example 239, {6-[4-(4-Benzyl-phthalazin-1-yl)-piperazin-1-yl]-pyridin-3-yl}-carbamic acid methyl ester]: the IC50 was 100 to 1000 nM in assay [1] (setting [4]), under 100 nM in assay [1] (setting [5]), under 100 nM in assay [2] and 100 to 1000 nM in assay [3].
With `COCCC(=O)NC(C)(C)c1ccc(N2CCN(c3nnc(Cc4ccccc4)c4ccccc34)CC2)nc1` [Example 122], the IC50 in assay [1] (setting [4]) is 100 to 1000 nM; in assay [1] (setting [5]) it was under 100 nM; in assay [2] it was under 100 nM; in assay [3] it was 100 to 1000 nM.
Regarding `Cc1cc(N2CCN(c3ccc(C#N)cn3)CC2)nnc1Cc1ccccc1` [Example 87], the 50% inhibitory concentration (IC50) in assay [1] (setting [5]), in assay [2] and in assay [3] was 100 to 1000 nM in each case.
Consider `O=C(c1ccc(N2CCN(c3nnc(Cc4ccccc4)c4ccccc34)CC2)nc1)N1CCOCC1` [Example 54k], for which the half-maximal inhibitory concentration (IC50) in assay [1] (setting [4]) is 100 to 1000 nM; in assay [1] (setting [5]), under 100 nM; in assay [2], under 100 nM; in assay [3], 100 to 1000 nM.
On to `O=C(c1cccc(F)c1)N1CCC(c2cn(Cc3ccc(F)cc3)c3ccccc23)CC1` [Example 101], for which the IC50 in assay [1] (setting [4]) lay within 10000 to 40000 nM; in assay [1] (setting [5]) it was 100 to 1000 nM; in assay [2], 100 to 1000 nM; in assay [3], 100 to 1000 nM.
`N#Cc1ccc(N2CCN(c3nnc(Cc4ccc(C(=O)O)cc4)c4ccccc34)CC2)nc1` [Example 180]: the IC50 in assay [1] (setting [4]) was 10000 to 40000 nM; in assay [1] (setting [5]) it was 1000 to 10000 nM; in assay [2] it was 10000 to 40000 nM; in assay [3], 10000 to 40000 nM.
On to `N#Cc1ccc(N2CCN(c3nnc(Cc4cccc(F)c4)c4ccccc34)CC2)nc1` [Example 182], for which the IC50 in assay [1] (setting [4]), in assay [1] (setting [5]), in assay [2] and in assay [3] was 100 to 1000 nM throughout.
With `OC1(c2ccc(N3CCN(c4nnc(Cc5ccccc5)c5ccccc45)CC3)nc2)COC1` [Example 111], the IC50 in assay [1] (setting [4]) is 100 to 1000 nM; in assay [1] (setting [5]), under 100 nM; in assay [2], under 100 nM; in assay [3], 100 to 1000 nM.
Consider `CCOC(=O)c1ccc(N2CCN(c3nnc(CN4CCOCC4)c4ccccc34)CC2)nc1` [Example 203, 6-[4-(4-Morpholin-4-ylmethyl-phthalazin-1-yl)-piperazin-1-yl]-nicotinic acid ethyl ester], for which the IC50 in assay [1] (setting [4]) fell in the range of 1000 to 10000 nM; in assay [1] (setting [5]), 100 to 1000 nM; in assay [2], 100 to 1000 nM; in assay [3], 100 to 1000 nM.
As for `CCN(CCO)C(=O)c1ccc(N2CCN(c3nnc(Cc4ccccc4)c4ccccc34)CC2)nc1` [Example 54d], the IC50 in assay [1] (setting [4]), in assay [1] (setting [5]), in assay [2] and in assay [3] was under 100 nM in each case.
In the case of `Cc1cc(Cc2ccc(F)cc2)nnc1N1CCN(c2ccc(C(F)(F)F)cn2)CC1` [Example 90], the IC50 was 1000 to 10000 nM in assay [1] (setting [4]), under 100 nM in assay [1] (setting [5]), under 100 nM in assay [2] and under 100 nM in assay [3].
Turning to `CN(CCO)C(=O)c1ccc(N2CCN(c3nnc(Cc4ccc(F)cc4)c4ccccc34)CC2)nc1` [Example 198, 6-{4-[4-(4-Fluoro-benzyl)-phthalazin-1-yl]-piperazin-1-yl}-N-(2-hydroxyethyl)-N-methyl-nicotinamide], the IC50 in assay [1] (setting [4]) was 100 to 1000 nM; in assay [1] (setting [5]) it was under 100 nM; in assay [2], under 100 nM; in assay [3], under 100 nM.
Take `c1ccc(Cc2nnc(N3CCC(c4nc5ccccc5[nH]4)CC3)c3ccccc23)cc1` [Example 114]: the IC50 in assay [1] (setting [4]) was 100 to 1000 nM; in assay [1] (setting [5]), under 100 nM; in assay [2], under 100 nM; in assay [3], under 100 nM.
Consider `NCc1ccc(C2CCN(c3nnc(Cc4ccccc4)c4ccccc34)CC2)cc1` [Example 125, 4-[1-(4-Benzyl-phthalazine-1-yl)-piperidine-4-yl]-benzylamine], for which the IC50 in assay [1] (setting [4]) lay in the range of 1000 to 10000 nM; in assay [1] (setting [5]) it was 100 to 1000 nM; in assay [2] it was 100 to 1000 nM; in assay [3], 1000 to 10000 nM.
As to `CN(CCO)C(=O)c1ccc(N2CCN(c3nnc(Cc4ccccc4Cl)c4ccccc34)CC2)nc1` [Example 200], the IC50 is 100 to 1000 nM in assay [1] (setting [4]), under 100 nM in assay [1] (setting [5]), under 100 nM in assay [2] and under 100 nM in assay [3].
For the compound `O=C(c1ccc(N2CCN(c3nnc(Cc4ccccc4)c4ccccc34)CC2)nc1)N1CC(O)C1` [Example 54z], the IC50 in assay [1] (setting [4]) was 100 to 1000 nM; in assay [1] (setting [5]), under 100 nM; in assay [2] it was 100 to 1000 nM; in assay [3] it was 100 to 1000 nM.
For `N#Cc1ccc(N2CCN(c3nnc(Cc4ccc(F)cc4)c4c3CCC4)CC2)nc1` [Example 93c, 6-{4-[4-(4-Fluoro-benzyl)-6,7-dihydro-5H-cyclopenta[d]pyridazin-1-yl]-piperazin-1-yl}-nicotinonitrile], the IC50 was 100 to 1000 nM in assay [1] (setting [4]), under 100 nM in assay [1] (setting [5]), under 100 nM in assay [2] and under 100 nM in assay [3].
With `COCC(=O)NCc1ccc(N2CCN(c3nnc(Cc4ccccc4)c4ccccc34)CC2)cc1` [Example 78b], the IC50 in assay [1] (setting [4]) is 100 to 1000 nM; in assay [1] (setting [5]), under 100 nM; in assay [2] it was 100 to 1000 nM; in assay [3], 100 to 1000 nM.
As to `N#Cc1ccc(N2CCN(c3cnc(Cc4cccc(Cl)c4)c4ccccc34)CC2)nc1` [Example 81], the IC50 in assay [1] (setting [4]) is 10000 to 40000 nM; in assay [1] (setting [5]) it was 1000 to 10000 nM; in assay [2], 1000 to 10000 nM; in assay [3], 10000 to 40000 nM.
For `N#Cc1cccc(C(=O)N2CCC(c3cn(Cc4ccccc4)c4ccccc34)CC2)c1` [Example 103], the IC50 in assay [1] (setting [4]), in assay [1] (setting [5]), in assay [2] and in assay [3] was 1000 to 10000 nM throughout.
Turning to `CC(C)(O)c1ccc(N2CCN(c3nnc(Cc4ccccc4)c4ccccc34)CC2)nn1` [Example 152], the IC50 is 100 to 1000 nM in assay [1] (setting [4]), under 100 nM in assay [1] (setting [5]), under 100 nM in assay [2] and 100 to 1000 nM in assay [3].
As for `Fc1ccc(Cn2cc(C3CCN(c4ccc(C(F)(F)F)cn4)CC3)c3ccccc32)cc1` [Example 95, 4-[1-(4-Fluoro-benzyl)-1H-indol-3-yl)-5′-trifluoromethyl-3,4,5,6-tetrahydro-2H-[1,2]-bipyridinyl], the IC50 in assay [1] (setting [4]) was 1000 to 10000 nM; in assay [1] (setting [5]) it was under 100 nM; in assay [2], 100 to 1000 nM; in assay [3] it was 100 to 1000 nM.
On to `Cc1cc(C)nc(N2CCN(c3nnc(Cc4ccccc4)c4ccccc34)CC2)n1` [Example 48], for which the IC50 in assay [1] (setting [4]) is 1000 to 10000 nM; in assay [1] (setting [5]), under 100 nM; in assay [2], under 100 nM; in assay [3] it was 100 to 1000 nM.

Broadly, the IC50 is the midpoint of a concentration-inhibition curve.

These data come from patent US8536168B2 (Novartis AG, priority 2007, dated 2013).
